{"source": "paper PMC8674378", "about": "(Journal of the American Chemical Society, 2021)", "key": {"[1]": {"target": "CalAHAS", "conditions": "cited from earlier work"}, "[2]": {"system": "S. cerevisiae BJ5464-NpgA", "assay": "Yeast growth inhibition in Ile and Val dropout medium", "assay_type": "cell-based", "conditions": "parent yeast strain"}, "[3]": {"target": "T1, ScsAHAS (Sclerotinia sclerotiorum, UniProt A7EMK2)", "T1 sequence (A7EMK2 30-699)": "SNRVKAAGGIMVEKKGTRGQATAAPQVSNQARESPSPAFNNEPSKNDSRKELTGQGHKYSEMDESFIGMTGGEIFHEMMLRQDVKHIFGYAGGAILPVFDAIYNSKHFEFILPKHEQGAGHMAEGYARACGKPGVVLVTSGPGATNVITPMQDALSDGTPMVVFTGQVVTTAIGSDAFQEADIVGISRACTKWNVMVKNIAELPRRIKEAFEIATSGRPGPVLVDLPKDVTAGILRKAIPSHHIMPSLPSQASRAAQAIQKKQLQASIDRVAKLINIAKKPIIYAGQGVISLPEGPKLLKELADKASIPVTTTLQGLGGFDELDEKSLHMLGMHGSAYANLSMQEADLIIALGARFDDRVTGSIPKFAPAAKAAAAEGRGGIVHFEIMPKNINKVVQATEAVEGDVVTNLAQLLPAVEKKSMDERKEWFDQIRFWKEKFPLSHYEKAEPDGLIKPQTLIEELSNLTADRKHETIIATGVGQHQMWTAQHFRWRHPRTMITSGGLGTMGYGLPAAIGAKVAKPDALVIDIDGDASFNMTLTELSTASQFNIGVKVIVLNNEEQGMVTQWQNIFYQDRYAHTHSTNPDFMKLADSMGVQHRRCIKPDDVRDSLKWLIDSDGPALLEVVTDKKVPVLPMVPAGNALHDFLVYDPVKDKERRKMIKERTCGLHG", "assay": "AHAS enzyme inhibition assay", "assay_type": "biochemical, S. sclerotiorum 1980 UF-70"}, "[4]": {"target": "FuoAHAS (Fusarium oxysporum, UniProt X0CFW6)", "assay": "AHAS enzyme inhibition assay", "assay_type": "biochemical, F. oxysporum NRRL 32931"}, "[5]": {"target": "ThAHAS", "assay": "AHAS enzyme inhibition assay", "assay_type": "biochemical, Trichoderma afroharzianum t-22"}, "[6]": {"system": "S. cerevisiae Δilv2 strain expressing ThAHAS", "assay": "Yeast growth inhibition in Ile and Val dropout medium", "assay_type": "cell-based", "conditions": "Δilv2 complemented with ThAHAS"}, "[7]": {"system": "S. cerevisiae Δilv2 strain expressing AtAHAS", "assay": "Yeast growth inhibition in Ile and Val dropout medium", "assay_type": "cell-based", "conditions": "Δilv2 complemented with AtAHAS"}, "[8]": {"system": "ThAHAS^M", "assay": "AHAS enzyme inhibition assay", "assay_type": "biochemical, Trichoderma afroharzianum t-22", "conditions": "for IC50: [E]=0.5 μM"}, "[9]": {"system": "S. cerevisiae Δilv2 strain expressing ThAHAS^M", "assay": "Yeast growth inhibition in Ile and Val dropout medium", "assay_type": "cell-based", "conditions": "Δilv2 complemented with ThAHAS^M"}, "[10]": {"system": "F. oxysporum", "assay": "Antifungal resazurin assay", "assay_type": "cell-based"}, "[11]": {"system": "S. cerevisiae Δilv2 strain with AHAS complementation", "assay_type": "cell-based", "conditions": "under assay concentrations, even in Ile and Val supplemented growth media"}, "[12]": {"system": "Sclerotinia sclerotiorum", "conditions": "plant pathogenic fungus; cited from earlier work"}, "[13]": {"system": "Rhizoctonia solani", "conditions": "plant pathogenic fungus; cited from earlier work"}, "[14]": {"target": "(UniProt Z9DR95LUB2)", "assay": "AHAS enzyme inhibition assay", "assay_type": "biochemical, Trichoderma afroharzianum t-22"}, "[15]": {"target": "SceAHAS (Saccharomyces cerevisiae, UniProt P07342)", "sequence (P07342 91-687)": "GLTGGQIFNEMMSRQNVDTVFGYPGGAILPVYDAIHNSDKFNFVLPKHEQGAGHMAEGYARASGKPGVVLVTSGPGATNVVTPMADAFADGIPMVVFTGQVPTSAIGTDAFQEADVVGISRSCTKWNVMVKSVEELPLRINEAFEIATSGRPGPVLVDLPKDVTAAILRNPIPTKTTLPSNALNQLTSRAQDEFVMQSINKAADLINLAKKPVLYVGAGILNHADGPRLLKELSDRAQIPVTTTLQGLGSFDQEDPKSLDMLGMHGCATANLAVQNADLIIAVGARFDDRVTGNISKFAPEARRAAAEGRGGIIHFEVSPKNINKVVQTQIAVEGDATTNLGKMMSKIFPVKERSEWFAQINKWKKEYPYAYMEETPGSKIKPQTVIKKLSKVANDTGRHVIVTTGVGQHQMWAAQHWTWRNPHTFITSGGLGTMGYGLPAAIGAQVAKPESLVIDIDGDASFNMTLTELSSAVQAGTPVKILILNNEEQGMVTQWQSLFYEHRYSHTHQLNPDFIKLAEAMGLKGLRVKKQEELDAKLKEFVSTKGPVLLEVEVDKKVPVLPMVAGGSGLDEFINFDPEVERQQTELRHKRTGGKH", "assay": "biochemical"}, "[16]": {"system": "soybeans", "conditions": "cited from earlier work"}, "[17]": {"target": "T2, AtAHAS (Arabidopsis thaliana, UniProt P17597)", "T2 sequence (P17597 56-670)": "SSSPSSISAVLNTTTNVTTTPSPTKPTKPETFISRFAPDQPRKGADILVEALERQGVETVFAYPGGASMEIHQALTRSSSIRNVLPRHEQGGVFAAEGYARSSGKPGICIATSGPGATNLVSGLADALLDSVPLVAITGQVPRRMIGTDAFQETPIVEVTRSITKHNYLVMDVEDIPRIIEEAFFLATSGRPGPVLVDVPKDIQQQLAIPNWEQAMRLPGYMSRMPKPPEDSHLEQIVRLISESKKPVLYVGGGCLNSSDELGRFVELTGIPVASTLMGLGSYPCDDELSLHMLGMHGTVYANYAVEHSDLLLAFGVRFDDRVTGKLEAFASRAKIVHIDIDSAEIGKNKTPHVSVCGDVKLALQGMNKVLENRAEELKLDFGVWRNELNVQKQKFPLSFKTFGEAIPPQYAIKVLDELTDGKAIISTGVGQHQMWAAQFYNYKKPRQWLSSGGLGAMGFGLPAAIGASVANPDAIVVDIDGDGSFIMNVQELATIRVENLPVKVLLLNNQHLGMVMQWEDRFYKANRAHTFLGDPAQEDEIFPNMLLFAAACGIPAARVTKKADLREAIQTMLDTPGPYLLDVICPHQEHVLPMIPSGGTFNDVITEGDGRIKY", "assay": "AHAS enzyme inhibition assay", "assay_type": "biochemical"}, "[18]": {"target": "T3, ThAHAS K247A (Trichoderma afroharzianum, UniProt A0ABF7PL51, K247A)", "T3 sequence (A0ABF7PL51 53-689 K247A)": "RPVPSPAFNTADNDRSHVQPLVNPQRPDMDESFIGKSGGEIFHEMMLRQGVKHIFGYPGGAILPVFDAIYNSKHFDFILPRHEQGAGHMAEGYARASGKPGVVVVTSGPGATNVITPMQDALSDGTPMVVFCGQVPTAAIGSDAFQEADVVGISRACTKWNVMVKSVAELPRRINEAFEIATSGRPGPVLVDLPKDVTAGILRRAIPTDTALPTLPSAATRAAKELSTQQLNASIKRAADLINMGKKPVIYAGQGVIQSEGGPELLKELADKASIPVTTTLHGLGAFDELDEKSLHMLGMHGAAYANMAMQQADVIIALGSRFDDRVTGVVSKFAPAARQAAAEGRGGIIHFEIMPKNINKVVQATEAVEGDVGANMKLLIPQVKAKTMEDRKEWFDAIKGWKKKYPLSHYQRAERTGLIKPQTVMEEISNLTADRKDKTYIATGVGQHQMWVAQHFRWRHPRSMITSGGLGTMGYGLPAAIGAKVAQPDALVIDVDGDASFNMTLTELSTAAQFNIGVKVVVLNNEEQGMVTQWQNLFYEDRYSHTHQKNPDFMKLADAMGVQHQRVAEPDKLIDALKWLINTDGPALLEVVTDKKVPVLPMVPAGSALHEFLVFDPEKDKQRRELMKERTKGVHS", "assay": "AHAS enzyme inhibition assay, K247A mutant", "assay_type": "biochemical, Trichoderma afroharzianum t-22"}, "[19]": {"system": "canola seedlings", "conditions": "higher (10–100 μg) doses, petri dishes; cited from earlier work"}}, "data": [{"smiles": "COc1cc(OC)n2nc(S(=O)(=O)Nc3c(Cl)ccc(C)c3Cl)nc2n1", "note": "[MT, metosulam]", "values": [{"measurement": "Ki", "setting": "[1]", "result": "low nanomolar"}]}, {"smiles": "COC(=O)c1ccccc1S(=O)(=O)NC(=O)Nc1nc(C)cc(C)n1", "note": "[SM, sulfometuron methyl, reference compound]", "values": [{"measurement": "growth inhibition", "setting": "[2]", "result": "potently inhibited"}, {"measurement": "sensitivity of ScsAHAS", "setting": "[3]; in vitro assay conditions", "result": "completely insensitive"}, {"measurement": "sensitivity of FuoAHAS", "setting": "[4]; in vitro assay conditions", "result": "completely insensitive"}, {"measurement": "IC50", "setting": "[5]", "result": "~0.35", "unit": "µM"}, {"measurement": "growth inhibition", "setting": "[6]", "result": "potently inhibited"}, {"measurement": "growth inhibition", "setting": "[7]", "result": "potently inhibited"}, {"measurement": "inhibition of ThAHAS^M", "setting": "[8]; even at elevated concentration (100 μM)", "result": "no inhibition"}, {"measurement": "growth inhibition", "setting": "[9]", "result": "minimal sensitivity"}]}, {"smiles": "CCCC=CC=CC(=O)C1=C(O)C(CC(O)(C(=O)O)C(C)C)NC1=O", "note": "(stereo not shown) [compound 5, demethylharzianic acid]", "values": [{"measurement": "IC50", "setting": "[8]", "result": 37, "unit": "µM"}]}, {"smiles": "CCCC=CC=CC(=O)C1=C(O)C(CC(O)(C(=O)O)C(C)C)N(C)C1=O", "note": "(stereo not shown) [HA, harzianic acid]", "values": [{"measurement": "IC50", "setting": "[10]; Fusarium oxysporum, 48 h, read-out: IC50 of growth inhibition", "result": "~26", "unit": "µg/mL"}, {"measurement": "inhibition of growth", "setting": "[10]; grown in the presence of BCAAs (Leu, Ile and Val), RPMI 1640, 48h", "result": "inhibition of growth was only observed at very high concentrations"}, {"measurement": "toxicity towards yeast", "setting": "[11]", "result": "general toxicity"}, {"measurement": "Ki", "setting": "[3]", "result": 11, "unit": "µM"}, {"measurement": "antifungal activity", "setting": "[12]", "result": "antifungal activity"}, {"measurement": "Ki", "setting": "[4]", "result": 14, "unit": "µM"}, {"measurement": "antifungal activity", "setting": "[13]", "result": "antifungal activity"}, {"measurement": "Ki", "setting": "[14]", "result": 6.65, "unit": "µM"}, {"measurement": "preferential binding, fold lower in Ki", "setting": "[5]; filamentous fungal AHAS over yeast SceAHAS", "result": "> 10", "unit": "fold"}, {"measurement": "Ki", "setting": "[15]", "result": "~83", "unit": "µM"}, {"measurement": "increase of production of soybean pods and seeds", "setting": "[16]; field conditions", "result": "5–10%"}, {"measurement": "improvement of stem lengths", "setting": "[16]; soybeans, greenhouse conditions", "result": "> 40", "unit": "%"}, {"measurement": "inhibition of plant AtAHAS", "setting": "[17]", "result": "No inhibition"}, {"measurement": "IC50", "setting": "[18]", "result": 162, "unit": "µM"}, {"measurement": "fold increase in IC50 by K247A mutation", "setting": "[18]; K247A versus ThAHAS", "result": 4, "unit": "fold"}, {"measurement": "Ki", "setting": "[8]", "result": 3.39, "unit": "µM"}, {"measurement": "IC50", "setting": "[8]", "result": 20, "unit": "µM"}, {"measurement": "effect on growth of canola seedlings", "setting": "[19]", "result": "growth inhibition"}]}]}
